Among the data in ChEMBL document CHEMBL1129561 (J Med Chem, 1996) are IC50 and Ki values, retold here.

pIC50, pKi: −log10 of the molar value.

One experiment has as its target T1, Androgen receptor (Homo sapiens, UniProt P10275).
T1 sequence (P10275 whole entry): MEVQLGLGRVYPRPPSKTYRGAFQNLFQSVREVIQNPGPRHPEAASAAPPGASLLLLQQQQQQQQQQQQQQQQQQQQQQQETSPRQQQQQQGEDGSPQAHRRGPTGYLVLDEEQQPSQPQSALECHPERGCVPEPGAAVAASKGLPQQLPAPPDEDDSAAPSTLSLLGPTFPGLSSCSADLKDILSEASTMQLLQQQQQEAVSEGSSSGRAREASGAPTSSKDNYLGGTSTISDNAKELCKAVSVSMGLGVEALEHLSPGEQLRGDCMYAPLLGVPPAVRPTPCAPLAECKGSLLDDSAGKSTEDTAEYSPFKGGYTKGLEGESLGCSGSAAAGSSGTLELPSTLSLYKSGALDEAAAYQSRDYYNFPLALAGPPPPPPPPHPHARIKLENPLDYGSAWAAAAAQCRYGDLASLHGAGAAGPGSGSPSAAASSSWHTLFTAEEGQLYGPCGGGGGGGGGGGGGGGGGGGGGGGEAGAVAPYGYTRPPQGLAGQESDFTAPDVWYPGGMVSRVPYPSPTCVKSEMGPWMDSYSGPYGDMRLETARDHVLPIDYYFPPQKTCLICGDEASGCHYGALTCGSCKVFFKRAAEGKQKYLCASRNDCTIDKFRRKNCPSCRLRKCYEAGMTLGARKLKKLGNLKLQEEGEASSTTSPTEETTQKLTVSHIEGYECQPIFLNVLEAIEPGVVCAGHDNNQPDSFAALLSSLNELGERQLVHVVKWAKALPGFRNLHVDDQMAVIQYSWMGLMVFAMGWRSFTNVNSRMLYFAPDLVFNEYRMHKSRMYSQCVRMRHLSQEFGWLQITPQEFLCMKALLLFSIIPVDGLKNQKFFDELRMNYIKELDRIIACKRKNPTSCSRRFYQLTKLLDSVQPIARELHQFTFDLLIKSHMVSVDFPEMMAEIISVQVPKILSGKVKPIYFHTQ

Another experiment concerns the target T2, Glucocorticoid receptor (Homo sapiens, UniProt P04150).
T2 sequence (P04150 whole entry): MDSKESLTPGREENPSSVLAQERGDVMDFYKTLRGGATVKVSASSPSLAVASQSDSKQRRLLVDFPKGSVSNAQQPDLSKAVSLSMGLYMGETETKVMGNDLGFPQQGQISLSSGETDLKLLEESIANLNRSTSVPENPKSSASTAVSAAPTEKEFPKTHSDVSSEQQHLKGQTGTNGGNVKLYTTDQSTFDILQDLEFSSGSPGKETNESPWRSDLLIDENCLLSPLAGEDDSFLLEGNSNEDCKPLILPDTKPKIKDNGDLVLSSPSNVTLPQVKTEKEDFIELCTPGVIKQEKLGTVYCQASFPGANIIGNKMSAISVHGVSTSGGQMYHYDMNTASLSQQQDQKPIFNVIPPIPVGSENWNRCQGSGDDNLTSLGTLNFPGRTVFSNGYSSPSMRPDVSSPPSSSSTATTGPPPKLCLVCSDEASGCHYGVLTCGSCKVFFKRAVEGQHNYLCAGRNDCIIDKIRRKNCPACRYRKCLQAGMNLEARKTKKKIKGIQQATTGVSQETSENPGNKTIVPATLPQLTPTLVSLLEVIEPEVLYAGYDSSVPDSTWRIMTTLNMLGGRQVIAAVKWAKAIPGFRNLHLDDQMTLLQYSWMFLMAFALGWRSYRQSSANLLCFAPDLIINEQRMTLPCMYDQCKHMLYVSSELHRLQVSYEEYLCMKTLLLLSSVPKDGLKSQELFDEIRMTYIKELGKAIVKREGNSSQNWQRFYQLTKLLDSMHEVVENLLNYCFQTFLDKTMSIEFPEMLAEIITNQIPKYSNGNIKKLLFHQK

Experiment [1] addresses T3, Progesterone receptor (Homo sapiens, UniProt P06401).
T3 sequence (P06401 whole entry): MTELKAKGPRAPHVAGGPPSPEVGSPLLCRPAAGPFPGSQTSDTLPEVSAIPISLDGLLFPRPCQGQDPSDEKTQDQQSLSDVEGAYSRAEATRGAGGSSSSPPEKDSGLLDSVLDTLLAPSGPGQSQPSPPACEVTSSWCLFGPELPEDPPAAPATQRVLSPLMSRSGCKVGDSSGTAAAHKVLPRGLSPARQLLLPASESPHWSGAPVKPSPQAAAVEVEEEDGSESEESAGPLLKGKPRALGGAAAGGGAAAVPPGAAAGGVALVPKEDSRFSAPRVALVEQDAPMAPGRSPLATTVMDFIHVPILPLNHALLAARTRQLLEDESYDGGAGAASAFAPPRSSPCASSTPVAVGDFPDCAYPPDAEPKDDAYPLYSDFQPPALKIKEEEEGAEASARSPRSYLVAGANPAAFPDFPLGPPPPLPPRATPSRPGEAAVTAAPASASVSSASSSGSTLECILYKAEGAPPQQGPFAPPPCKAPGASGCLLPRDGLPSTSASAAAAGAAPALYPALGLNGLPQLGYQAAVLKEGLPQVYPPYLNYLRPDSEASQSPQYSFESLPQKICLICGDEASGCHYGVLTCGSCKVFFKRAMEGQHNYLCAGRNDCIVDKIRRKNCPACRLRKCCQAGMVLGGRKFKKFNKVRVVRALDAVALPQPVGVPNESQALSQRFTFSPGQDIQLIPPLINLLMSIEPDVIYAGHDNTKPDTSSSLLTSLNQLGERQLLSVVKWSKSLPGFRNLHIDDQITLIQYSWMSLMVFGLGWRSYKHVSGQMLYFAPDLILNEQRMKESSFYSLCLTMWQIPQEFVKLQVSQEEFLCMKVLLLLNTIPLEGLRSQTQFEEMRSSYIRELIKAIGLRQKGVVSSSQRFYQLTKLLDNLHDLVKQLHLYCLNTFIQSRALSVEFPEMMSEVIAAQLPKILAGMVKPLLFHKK

Experiment [2] addresses T3, Progesterone receptor. This is another data set of the same source.

Description for Androgen receptor: Inhibitory activity against human Androgen receptor
Description for Glucocorticoid receptor: Inhibitory activity against human glucocorticoid receptor (hGR)

For orientation: pIC50 means the IC50 on a negative log10 scale, so that one unit is a factor of ten. Read a high pIC50 as a low IC50. By pKi is commonly meant the Ki on a negative log10 scale, so that one unit is a factor of ten. A higher pKi goes with a small Ki. As to `C=C1C=C(C)CC(C)(C)C1Cc1ccc([N+](=O)[O-])cc1` (centres undefined), the figures for the pIC50 at Androgen receptor, at Glucocorticoid receptor and on Progesterone receptor [2] were 6.60, under 5.00 and 6.73, respectively. Also, on Progesterone receptor [1], the pKi was 7.27.
